Legend:
[1] = Stability in concentrated trimethylglycine (TMG) aqueous solution followed by capillary electrophoresis; type: physicochemical; conditions: dissolved in 50% w/v TMG, diluted to final TMG 25%; CE at 230 nm
From the text: Kadokawa et al.[35] reported that a highly concentrated solution of trimethyl glycine (TMG, also known as betaine) is able to improve the solubility of cisplatin in water without affecting the pharmacological proprieties of this drug. The mechanism behind this effect seems to lie in the hydrogen bond acceptor property of the carboxylate of TMG, which establishes hydrogen bonds with the amino groups of cisplatin. Betaine is a nontoxic compound and is highly soluble in water. On the basis of this study, we decided to test the solubility of 3 in a highly concentrated (50% w/v) TMG aqueous solution. The platinum compound was soluble enough to allow investigations with the established protocol for capillary electrophoresis. TMG has a strong absorption at low wavelengths, and therefore, a wavelength of 230 nm was chosen instead of 195 nm for recording the electropherograms with TMG.
(§1) A solution of sodium tetraborate (final borate concentration of 50 mM) and sodium dodecyl sulfate (100 mM) was used as a background electrolyte (BGE). The pH of the BGE was adjusted to 9.3 by titration with 1 M NaOH. Every new capillary was rinsed with 1 M NaOH (45 min), water (45 min), and BGE (45 min) before the first use. The capillary was kept on a constant temperature of 25 °C, whereas the sample carousel was temperature-controlled at 37 °C. Sample injection was performed in hydrodynamic mode, applying a pressure of 50 mbar for 2 s on the inlet vial. The separation voltage was set at +20 kV. If not stated differently, a wavelength of 195 nm was employed for the DAD detector. The analytic window was evaluated by using dodecaphenone as a micellar marker and methanol (HPLC grade) as an electroosmotic flow (EOF) marker. The run time required for the analysis was estimated to be 25 min. The capillary was flushed before every run with 0.1 M NaOH (3 min), water (3 min), and BGE (5 min). Every value is calculated from at least three independent measurements. The half-lives were presented as the mean ± standard deviation. All of the samples, buffers, and washing solutions were membrane-filtered (0.22 μm pore size). All samples employed for stability experiments were prepared using benzoic acid as an internal standard (IS).

[2] = system: HT-29 colon carcinoma cell line; test: MTT metabolic activity (cytotoxicity) assay, HT-29; type: cell-based; conditions: 72 h incubation
Protocol: (§2) In order to determine the antitumor activity of the platinum complexes, in vitro cytotoxicity tests were performed. Compounds 1–4 were tested with cisplatin as a reference on the breast cancer cell line MCF-7 and the colon carcinoma cell line HT-29. Complexes 1, 4, and 5, as well as the ligand (but-3-en-1-yl 2-acetoxybenzoate, 6) were additionally evaluated on MDA-MB-231 cells and A2780cis cells, also using cisplatin as a reference. The metabolic activity as an indicator of cytotoxicity was determined by a classical 3-(4,5-dimethylthiazol-2-yl)-2,5-diphenyltetrazoliumbromid (MTT) assay.
(§3) The cell lines A2780cis and MDA-MB-231 were cultivated in RPMI 1640 without phenol red (PAN Biotech, Aidenbach, Germany), supplemented with L-glutamine (2 mM), 100 μg/mL penicillin, 100 μg/mL streptomycin, and FCS (10%) (all from Invitrogen Corporation, Gibco, Paisley, Scotland) at 37 °C in a 5% CO2/95% air atmosphere, and passaged twice per week. To maintain resistance, A2780cis cells were incubated every second week with cisplatin (1 μM). The cell lines MCF-7 and HT-29 were grown in DMEM without phenol red (PAN Biotech, Aidenbach, Germany), containing L-glutamine, 100 μg/mL penicillin, 100 μg/mL streptomycin, sodium pyruvate ([…]) (PAN Biotech), and FCS (10%) under the same conditions as the other cell lines.
(§4) The exponentially growing cell lines were seeded at a density of 2000 cells/well for MCF-7 cells, 4000 cells/well for HT-29 cells and MDA-MB-231 cells, and 8000 cells/well for A2780cis cells, respectively, into clear flat-bottom 96-well plates in triplicates. Following 24 h of incubation for adherence at 37 °C in a humidified atmosphere (5% CO2/95% air), the compounds were added to reach the desired concentrations between 10 and 100 μM, respectively. All stock solutions were prepared in dimethylformamide at a concentration of 100 mM and were then diluted with the respective cell-culture medium to the appropriate concentrations. After another 72 h of incubation, the cellular metabolic activity was measured by employing a MTT assay. Hereby, the yellow tetrazolium salt is converted to a purple formazan salt by the functioning mitochondria. These purple crystals are then dissolved in DMSO and can be quantified via absorption measurements at 570 and 420 nm. The optical density of the particular medium was subtracted in order to exclude the unspecific staining caused by the FCS-containing medium. The values were calculated with Excel 2019 (Microsoft, Redmond, WA, USA) using nonlinear regression and the decal logarithm of the inhibitor versus variable slope equation, while the top constraint was set to 100%.

[3] = system: MCF-7 breast cancer cell line; test: MTT metabolic activity (cytotoxicity) assay, MCF-7; type: cell-based; conditions: 72 h incubation
Protocol: as §2, §3, §4

[4] = Lipophilicity estimate from MEKC experiments (buffer/micelle partition); type: physicochemical; conditions: three independent experiments (one for 5 and 6)
Protocol: The lipophilicity of the tested compounds was estimated on the basis of MEKC experiments similar to Herbert and Dorsey[37] (see Table 7). The values estimated in this way were compared with theoretical values obtained from two different methods: for platinum complexes, a previously established method[38] was used, while for the organic ligand, the Osiris Property Explorer[39] was employed.
as §1

human recombinant COX-1 = molecular target: T1, human recombinant COX-1 (Homo sapiens, UniProt P23219); test: COX-1 inhibition, enzyme immunoassay (COX Inhibitor Screening Assay); type: biochemical; conditions: 2 min incubation
T1 construct: purchased Cayman Chemicals
T1 sequence (P23219 24-599): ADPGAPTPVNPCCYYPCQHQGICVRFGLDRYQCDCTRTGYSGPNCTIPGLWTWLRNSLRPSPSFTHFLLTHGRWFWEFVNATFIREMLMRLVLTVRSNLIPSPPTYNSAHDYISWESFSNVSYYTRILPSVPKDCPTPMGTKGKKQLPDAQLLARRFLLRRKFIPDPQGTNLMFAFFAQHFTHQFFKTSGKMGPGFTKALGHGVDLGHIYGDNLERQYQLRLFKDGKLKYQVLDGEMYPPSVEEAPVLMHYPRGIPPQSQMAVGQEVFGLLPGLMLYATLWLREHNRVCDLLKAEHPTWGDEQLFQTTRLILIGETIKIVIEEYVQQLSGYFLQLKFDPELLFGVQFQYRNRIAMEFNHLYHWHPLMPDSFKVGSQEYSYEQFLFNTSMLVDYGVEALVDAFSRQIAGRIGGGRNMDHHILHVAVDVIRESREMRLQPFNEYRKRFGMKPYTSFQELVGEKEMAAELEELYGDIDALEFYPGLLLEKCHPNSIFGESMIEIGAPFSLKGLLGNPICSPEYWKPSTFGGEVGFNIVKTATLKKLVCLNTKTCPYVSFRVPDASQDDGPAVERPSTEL
Protocol: The incubation time of the compounds with the respective isoenzymes was exactly 2 min. The results are presented as the mean ± SD of three independent experiments with two replicates of each experiment.

[5] = system: MDA-MB-231 breast cancer cell line; test: MTT metabolic activity (cytotoxicity) assay, MDA-MB-231; type: cell-based; conditions: for IC50: MTT, 72 h incubation
Protocol: as §2, §3, §4

human recombinant COX-2 = molecular target: T2, human recombinant COX-2 (Homo sapiens, UniProt P35354); test: COX-2 inhibition, enzyme immunoassay (COX Inhibitor Screening Assay); type: biochemical; conditions: 2 min incubation
T2 construct: purchased Cayman Chemicals
T2 sequence (P35354 18-604): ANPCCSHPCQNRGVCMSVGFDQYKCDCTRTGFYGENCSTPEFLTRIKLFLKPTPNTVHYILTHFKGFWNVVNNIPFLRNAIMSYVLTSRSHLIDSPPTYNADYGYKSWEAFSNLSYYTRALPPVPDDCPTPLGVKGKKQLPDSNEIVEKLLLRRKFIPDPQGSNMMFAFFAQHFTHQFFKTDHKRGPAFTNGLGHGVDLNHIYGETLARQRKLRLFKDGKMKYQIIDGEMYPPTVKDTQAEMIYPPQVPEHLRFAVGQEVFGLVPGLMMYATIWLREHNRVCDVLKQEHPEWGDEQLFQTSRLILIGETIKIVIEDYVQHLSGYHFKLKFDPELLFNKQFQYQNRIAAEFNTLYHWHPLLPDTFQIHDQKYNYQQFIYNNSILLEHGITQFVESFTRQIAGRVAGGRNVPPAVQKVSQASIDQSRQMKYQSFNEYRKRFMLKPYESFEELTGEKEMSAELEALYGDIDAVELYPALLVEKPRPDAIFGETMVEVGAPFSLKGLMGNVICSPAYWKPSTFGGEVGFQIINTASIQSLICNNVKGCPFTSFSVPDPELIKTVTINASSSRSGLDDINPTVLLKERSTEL
Protocol: Metal complexes containing an ASA moiety have been reported as inhibitors for COX-1/-2 previously.[4],[14],[40]−[44] […] Hereby, the isolated enzymes were treated with final concentrations of 10 and 25 μM of substances 1, 4, 5, and 6.
Inhibition of the isolated human recombinant COX-1 and COX-2 isoenzymes by the platinum complexes (10 and 25 μM) was evaluated using an enzyme immunoassay (EIA) (COX Inhibitor Screening Assay, Cayman Chemicals, Ann Arbor, Mi, USA) following the manufacturer’s protocol. The incubation time of the compounds with the respective isoenzymes was exactly 2 min. The results are presented as the mean ± SD of three independent experiments with two replicates of each experiment. The untreated control was set at 0% inhibition of the COX activity.

[6] = 50% methanolic solution; previously measured; cited from earlier work
[7] = system: A2780cis ovarian carcinoma cell line (cisplatin-resistant); test: MTT metabolic activity (cytotoxicity) assay, A2780cis; type: cell-based; conditions: for IC50: MTT, 72 h incubation
Protocol: as §2, §3, §4

[8] = Stability in aqueous solution followed by capillary electrophoresis; type: physicochemical; conditions: water; CE, samples at 37 °C
Protocol: The stability of complexes 1–4 was tested in an aqueous solution, to investigate how the different ways of amino acid coordination impacts aqueous degradation (see Table 4). The stability of complex 5 was previously measured in a 50% methanolic solution.[4]
as §1

[9] = 25 μM, without compounds set at 100%

| half-life time (τ1/2) in TMG solution [1] | coefficient of partition between buffer and micelles (k′), average [4] | Compound | IC50 [2] | IC50 [3] | IC50 [5] | IC50 [7] | further results |
| --- | --- | --- | --- | --- | --- | --- | --- |
| 12.0 ± 3.0 h | 2.392 ± 0.185 | C=C.NC(Cc1c[nH]cn1)C(=O)O.[Cl][Pt] [compound 3, (L-Histidinato-N,N)chlorido(η^2-ethene)platinate(II)] | > 100 µM | > 100 µM |  |  |  |
|  |  | C=CCCOC(=O)c1ccccc1OC(C)=O.[Cl][Pt-]([Cl])[Cl].[K+] [compound 5, potassium {trichlorido[η^2-(but-3-en-1-yl)-2-acetoxybenzoate]platinate(II)}] |  |  | > 50 µM | > 50 µM | % Inhibition COX-1 (human recombinant COX-1; 10 μM): 67.84 ± 10.57%; % Inhibition COX-1 (human recombinant COX-1; 25 μM): 80.49 ± 11.10%; % Inhibition COX-2 (human recombinant COX-2; 10 μM): 39.56%; % Inhibition COX-2 (human recombinant COX-2; 25 μM): 63.10 ± 8.07%; half-life in 50% methanolic solution [6]: 69.6 ± 3.0 h |
|  |  | N.N.[Cl][Pt][Cl] [cisplatin, reference compound] | 13.9 ± 5.16 µM | 29 ± 4.28 µM | 13.3 ± 0.87 µM | 14.8 ± 1.23 µM | metabolic activity (residual) on MDA-MB-231 [5, 9]: 8.71%; metabolic activity (residual) on A2780cis [7, 9]: 4.71% |
| 0.77 ± 0.08 h | 3.099 ± 0.149 | C=C.NCCC(=O)[O][Pt][Cl] [2b, (Ethylene,O-trans)(β-alaninato-N,O)chlorido(η^2-ethene)platinate(II)] | > 100 µM | > 100 µM |  |  | half-life time (τ1/2) in water [8]: 1.7 ± 0.2 h |
|  |  | CC(=O)Oc1ccccc1C(=O)O [ASA, acetylsalicylic acid, reference compound] |  |  |  |  | inhibition at 10 µM (human recombinant COX-1; 10 μM): 17.3%; inhibition at 10 µM (human recombinant COX-2; 10 μM): 9.33% |
